Data published in patent publication US20230286946A1, “DIFLUOROMETHYL-PYRIDIN-2-YL TRIAZOLES” (Boehringer Ingelheim International GmbH, priority 2020, published 2023).
Where two headings read alike, the source gives them in different places.

Experiments:
[1] = target: T1, human GABAA α5β3γ2s receptor (Homo sapiens, UniProt P18507+P31644); assay: Assay A: in vitro inhibition of 3H-flumazenil binding, HEK cells expressing the human GABAA α5β3γ2s receptor
T1 sequence (P18507 1-475): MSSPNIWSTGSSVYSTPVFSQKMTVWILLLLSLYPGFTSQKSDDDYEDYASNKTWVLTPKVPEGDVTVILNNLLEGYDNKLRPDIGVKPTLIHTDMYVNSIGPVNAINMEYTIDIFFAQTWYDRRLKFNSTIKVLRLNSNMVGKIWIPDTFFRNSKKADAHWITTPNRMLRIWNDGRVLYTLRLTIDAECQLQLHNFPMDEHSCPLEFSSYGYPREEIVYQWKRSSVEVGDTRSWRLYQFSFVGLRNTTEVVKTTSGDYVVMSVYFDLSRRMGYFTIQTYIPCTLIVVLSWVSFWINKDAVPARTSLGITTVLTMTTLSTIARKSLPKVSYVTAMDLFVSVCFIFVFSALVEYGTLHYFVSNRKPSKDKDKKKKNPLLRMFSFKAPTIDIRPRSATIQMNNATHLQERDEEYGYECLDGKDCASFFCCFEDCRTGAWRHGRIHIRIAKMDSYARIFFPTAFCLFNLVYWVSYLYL
T1 sequence (P31644 1-462): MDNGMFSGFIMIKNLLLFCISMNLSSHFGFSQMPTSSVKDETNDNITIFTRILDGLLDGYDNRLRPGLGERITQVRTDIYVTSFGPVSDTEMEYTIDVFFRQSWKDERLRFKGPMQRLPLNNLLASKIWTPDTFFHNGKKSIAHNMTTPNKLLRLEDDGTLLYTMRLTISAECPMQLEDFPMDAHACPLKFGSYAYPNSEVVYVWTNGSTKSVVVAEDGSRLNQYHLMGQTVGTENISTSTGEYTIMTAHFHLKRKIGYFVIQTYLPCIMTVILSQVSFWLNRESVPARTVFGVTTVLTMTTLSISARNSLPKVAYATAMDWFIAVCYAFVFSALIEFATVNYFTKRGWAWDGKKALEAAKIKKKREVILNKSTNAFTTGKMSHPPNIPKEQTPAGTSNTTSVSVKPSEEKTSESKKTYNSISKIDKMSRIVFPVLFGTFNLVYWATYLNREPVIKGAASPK
Experimental: Cell Cultures and Membrane Preparation
HEK-293 cell lines with stable expression of recombinant human GABAA α5ß3 γ2s receptors (plasmid H46/E9/B10) are seeded in T175 polystyrene flasks or roller bottles (1700 cm^2, Fisher Scientific CCI-431191), and cultured (37° C., 5% CO2) in Dulbecco's Modified Eagle Medium (DMEM) with GlutaMAX™ supplemented with 10% fetal bovine serum and one or both of the following antibiotics: hygromycin B ([…]; γ2 subunit) or G418 (0.5 mg/ml; […]).
When the cultures reach confluency, the DMEM is removed and the cells are washed (10 ml for T175 flasks; 50 ml for roller bottles) once in Dulbecco's Phosphate Buffered Saline (DPBS). Following addition of DPBS to the cultures (10 ml for T175 flasks; 100 ml for roller bottles) for approximately 5 min cells are easily detached from the surface by shaking or tapping the flask gently. The cell suspension is transferred to Falcon tubes and centrifuged at 23,500×g for 10 min at 2° C. The pellet is washed once in 15 ml Tris-citrate buffer (50 mM, pH 7.1) using an Ultra-Turrax homogenizer and centrifuged at 2° C. for 10 min at 27,000×g. The washed pellet is re-suspended in 15 ml Tris-citrate buffer and frozen at −80° C. until the day of the binding experiment.
On the day of the experiment the cell membrane preparation is thawed and centrifuged at 2° C. for 10 min at 27,000×g. The pellet is re-suspended, using an Ultra-Turrax homogenizer in Tris-citrate buffer, to 15-50 µg protein per assay and then used for binding assays.
Non-specific binding is determined using clonazepam ([…]).
All dilutions of test compounds and incubation of assay are performed in glass vials/96-vial plates. […] Compounds are dissolved in 100% DMSO (10 mM stock), diluted in 48% ethanol-water, and tested in triplicate in serial 1:3 or 1:10 dilutions. When screening large numbers of compounds only one concentration of each compound is tested in single wells. Reference compounds are not included routinely, but for each experiment performed total and nonspecific binding is compared to data obtained during validation of the assay.
Binding is either terminated by rapid filtration onto
1) Whatman GF/C glass fibre filters using a Brandel Cell harvester, followed by 5 washes with 1 ml ice-cold buffer or onto 2) UniFilter GF/C glass fibre filter plates using a Tomtec cell harvester, followed by washing with approximately 5 ml ice-cold buffer.
The amount of radioactivity on the filters is determined by conventional liquid scintillation counting using a
1) Tri-Garb™ counter (PerkinElmer Life and Analytical Sciences) for separate large filters or
2) Topcount™ counter (PerkinElmer Life and Analytical Sciences) for 96-well filter plates.
Specific binding is total binding minus non-specific binding.
The IC50 value for a test compound is determined based on the equation: […]
where B is the binding in percentage of total specific binding; C is the concentration of test compound; and n is the Hill coefficient. For screening purposes n is set to 1. The IC50 value is calculated from the concentration response curves by the non-linear regression method using the curve-fitting program GraphPad Prism.
The Ki value for a test compound can be calculated from the IC50 value using the equation by Cheng and Prusoff: […]

[2] = target: T2, α5ß2 γ2 GABAA Receptor (Homo sapiens, UniProt P18507+P31644); assay: Assay B: in vitro evaluation of modulation of α5ß2γ2 GABAA receptor, two-electrode voltage clamp in oocytes; assay type: cell-based; conditions: for EC50: co-application with 0.5 μM GABA, oocytes, read-out: Assay B: GABAA α 5 β 3 γ 2 EC50
T2 sequence (P31644 32-462): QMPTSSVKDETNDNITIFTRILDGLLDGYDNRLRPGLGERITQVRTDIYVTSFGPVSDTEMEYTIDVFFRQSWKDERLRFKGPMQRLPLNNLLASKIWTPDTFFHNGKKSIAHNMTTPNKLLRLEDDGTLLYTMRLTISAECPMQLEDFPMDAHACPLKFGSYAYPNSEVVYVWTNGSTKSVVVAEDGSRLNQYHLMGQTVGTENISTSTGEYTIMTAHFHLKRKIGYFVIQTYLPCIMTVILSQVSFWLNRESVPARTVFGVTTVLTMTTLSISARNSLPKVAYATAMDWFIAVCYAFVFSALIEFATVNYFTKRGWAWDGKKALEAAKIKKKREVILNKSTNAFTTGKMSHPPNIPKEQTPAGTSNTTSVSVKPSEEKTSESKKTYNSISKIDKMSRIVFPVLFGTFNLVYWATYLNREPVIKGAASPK
T2 sequence (P18507 40-376 limits assumed): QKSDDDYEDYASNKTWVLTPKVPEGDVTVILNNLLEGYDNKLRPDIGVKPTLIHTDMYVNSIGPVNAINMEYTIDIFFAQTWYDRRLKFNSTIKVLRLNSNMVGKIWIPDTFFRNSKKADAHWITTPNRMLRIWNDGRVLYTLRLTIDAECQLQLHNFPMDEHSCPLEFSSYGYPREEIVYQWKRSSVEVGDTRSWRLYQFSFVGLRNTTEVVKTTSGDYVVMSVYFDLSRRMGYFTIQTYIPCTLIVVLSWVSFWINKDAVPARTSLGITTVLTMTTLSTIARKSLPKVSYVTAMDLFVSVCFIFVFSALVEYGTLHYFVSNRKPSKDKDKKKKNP
Experimental: Assay B: In Vitro Evaluation of Modulation of α5ß2 γ2 GABAA Receptor.
Modulatory efficacy of compounds of formular (I) is determined electrophysiological recordings in oocytes using the two-electrode voltage clamp (TEVC) technique. Oocytes are injected with cRNA for human GABAA receptor subunits α5, ß2 and γ2 in a 3:1:3 ratio and modulatory efficacy is evaluated by co-applications with a submaximal EC5-20 GABA concentration (0.5 μM) termed GABA control. As a standard, the compounds are tested in five concentrations (3.16, 0.316, 0.0316, 0.00316 and 0.000316 μM) on each oocyte starting with the lowest concentration. Background subtracted peak current amplitudes are normalized to the respective GABAcontrol current, converted to % change and depicted +/−S.E.M. as a function of increasing compound concentrations. Plotted datapoints are fitted to the empirical Hill equation using non-linear regression. 95% confidence intervals for maximal efficacy (Bottom) and potency (Log EC50) are derived from this fitting routine.

[3] = read-out: Assay A: GABAA α 5 β 3 γ 2s Ki
[4] = comparison compounds of WO 2020/016433, read-out: Assay A: GABAA α5 β3 γ2S Ki

| Compound | Ki [1, 3] | Assay B: GABAA α 5 β 3 γ 2 Emax vs GABA [2] | EC50 [2] | Ki [1, 4] | Ki ([1]; compounds of the present invention, read-out: Assay A: GABAA α5 β3 γ2S Ki) |
| --- | --- | --- | --- | --- | --- |
| CNc1cc(C)nn1-c1ccc(OCc2c(-c3ccc(C(F)F)cn3)nnn2C)nn1 [Example 41] | 2 nM | -21.3% | 43.7 nM | – | – |
| Cc1nnn(-c2ccc(C(F)F)cc2)c1COc1ccc(-c2ccn[nH]2)nn1 [reference compound] | – | – | – | 0.12 nM | – |
| Cc1nnn(-c2ccc(C(F)F)cn2)c1COc1ccc(-n2cnc(C(N)=O)c2)nn1 [Example 36] | > 8890 nM | – | – | – | – |
| CCn1cc(-c2ccc(OCc3c(C)nnn3-c3ccc(C(F)F)cn3)nn2)ccc1=O [Example 21] | 10 nM | -4% | – | – | – |
| Cc1nnn(-c2ccc(C(F)F)cn2)c1COc1ccc(-n2cncn2)nn1 [Example 55] | 32 nM | -20.3% | 24.3 nM | – | 0.032 nM |
| Cc1nnn(-c2ccc(C(F)F)cn2)c1COc1ccc(-n2ccnn2)nn1 [Example 44] | 14 nM | -17.7% | 14.1 nM | – | – |
| Cc1nnn(-c2ccc(C(F)F)cn2)c1COc1ccc(-c2cncc(C#N)c2)nn1 [Example 13] | 6 nM | -9% | 44.5 nM | – | – |
| Cc1nnn(-c2ccc(C(F)F)cc2)c1COc1ccc(-n2cncn2)nn1 [reference compound] | – | – | – | 0.546 nM | – |
| Cc1nnn(-c2ccc(C(F)F)cn2)c1COc1ccc(-c2cccc(C#N)n2)nn1 [Example 11] | 9 nM | -13.5% | 37.5 nM | – | – |
| Cc1nnn(-c2ccc(C(F)F)cc2)c1COc1ccc(-n2cnc(C#N)c2)nn1 [reference compound] | – | – | – | 0.126 nM | – |
| Cc1nnn(-c2ccc(C(F)F)cc2)c1COc1ccc(-c2cnccn2)nn1 [reference compound] | – | – | – | 0.249 nM | – |
| Cn1nnc(-c2ccc(C(F)F)cn2)c1COc1ccc(-n2cc(Cl)cn2)nn1 [Example 51, 3-(4-chloro-1H-pyrazol-1-yl)-6-({4-[5-(difluoromethyl)pyridin-2-yl]-1-methyl-1H-1,2,3-triazol-5-yl}methoxy)pyridazine] | 15 nM | -27.3% | 29 nM | – | – |
| Cn1nnc(-c2ccc(C(F)F)cn2)c1COc1ccc(-c2cncc(C#N)c2)nn1 [Example 27] | 12 nM | -6.7% | – | – | – |
| CCc1nccn1-c1ccc(OCc2c(-c3ccc(C(F)F)cn3)nnn2C)nn1 [Example 45] | 150 nM | -17.3% | 23 nM | – | – |
| Cn1ccc(-c2ccc(OCc3c(-c4ccc(C(F)F)cn4)nnn3C)nn2)n1 [Example 34] | 25 nM | -17% | 4.2 nM | – | – |
| CNc1cc(-c2ccc(OCc3c(-c4ccc(C(F)F)cn4)nnn3C)nn2)ccn1 [Example 26] | 14 nM | -5.3% | – | – | – |
| CSc1ccc(-c2ccc(OCc3c(C)nnn3-c3ccc(C(F)F)cn3)nn2)cn1 [Example 10] | 9 nM | -8% | 75 nM | – | – |
| CCc1cn(-c2ccc(OCc3c(-c4ccc(C(F)F)cn4)nnn3C)nn2)nc1N [Example 40] | 8 nM | -10.3% | 32.7 nM | – | – |
| Cn1nnc(-c2ccc(C(F)F)cn2)c1COc1ccc(-n2ccnc2C#N)nn1 [Example 46] | 220 nM | -26.3% | 10.4 nM | – | – |
| Cc1nccn1-c1ccc(OCc2c(-c3ccc(C(F)F)cn3)nnn2C)nn1 [Example 47] | 120 nM | -7% | 15.5 nM | – | – |
| Cc1nnn(-c2ccc(C(F)F)cn2)c1COc1ccc(-n2cc(F)cn2)nn1 [Example 54, 3-({1-[5-(difluoromethyl)pyridin-2-yl]-4-methyl-1H-1,2,3-triazol-5-yl}methoxy)-6-(4-fluoro-1H-pyrazol-1-yl)pyridazine] | 14 nM | -34.7% | 15 nM | – | – |
